Laboratory results as given in ChEMBL document CHEMBL3232986, “Identification of a novel series of potent HCV NS5B Site I inhibitors” (Bioorg Med Chem Lett, 2014).

Target: not listed separately
Experiment: Inhibition of HCV genotype 1b wild type NS5B polymerase using biotinylated oligo dT12 primer as substrate after 4 hrs in presence of [3H]UTP
Design: species or system Hepatitis C virus subtype 1b
Details: not given

Structure (SMILES) | IC50
COc1ccc2c(c1)[C@@H]1C[C@]1(C(=O)N1CC34CCC3(C1)CN(C1CC1)C4)Cn1c-2c(C2CCCCC2)c2ccc(C(=O)NS(=O)(=O)C(C)C)cc21 (stereo not given in full) | 5 nM
COc1ccc2c(c1)[C@@H]1C[C@]1(C(=O)N1CC34CCC3(CN(C(C)=O)C4)C1)Cn1c-2c(C2CCCCC2)c2ccc(C(=O)NS(=O)(=O)C(C)C)cc21 (stereo not given in full) | 2 nM
COC(=O)N1CC23CCC2(C1)CN(C(=O)[C@]12C[C@H]1c1cc(OC)ccc1-c1c(C4CCCCC4)c4ccc(C(=O)NS(=O)(=O)C(C)C)cc4n1C2)C3 (stereo not given in full) | 25 nM
CNC(=O)N1CC23CCC2(C1)CN(C(=O)[C@]12C[C@H]1c1cc(OC)ccc1-c1c(C4CCCCC4)c4ccc(C(=O)NS(=O)(=O)C(C)C)cc4n1C2)C3 (stereo not given in full) | 2 nM
COc1ccc2c(c1)[C@@H]1C[C@]1(C(=O)N1CC34CCC3(CN(C(=O)N3CCCC3)C4)C1)Cn1c-2c(C2CCCCC2)c2ccc(C(=O)NS(=O)(=O)C(C)C)cc21 (stereo not given in full) | 4 nM
COc1ccc2c(c1)[C@@H]1C[C@]1(C(=O)N1CC34CCC3(CN(C(=O)N3CCCC3)C4)C1)Cn1c-2c(C2CCCCC2)c2ccc(C(=O)NS(=O)(=O)N(C)C)cc21 (stereo not given in full) | 2 nM
COc1ccc2c(c1)[C@@H]1C[C@]1(C(=O)N1CC34CCC3(CN(C(=O)N3CCOCC3)C4)C1)Cn1c-2c(C2CCCCC2)c2ccc(C(=O)NS(=O)(=O)C(C)C)cc21 (stereo not given in full) | 5 nM
COc1ccc2c(c1)[C@@H]1C[C@]1(C(=O)N1CC34CCC3(CN(C(=O)N3CCOCC3)C4)C1)Cn1c-2c(C2CCCCC2)c2ccc(C(=O)NS(=O)(=O)N(C)C)cc21 (stereo not given in full) | 2 nM
COc1ccc2c(c1)[C@@H]1C[C@]1(C(=O)N1CC34CCC3(CN(C(=O)N(C(C)C)C(C)C)C4)C1)Cn1c-2c(C2CCCCC2)c2ccc(C(=O)NS(=O)(=O)C(C)C)cc21 (stereo not given in full) | 4 nM
COc1ccc2c(c1)[C@@H]1C[C@]1(C(=O)N1CC34CCC3(CN(C(=O)N(C(C)C)C(C)C)C4)C1)Cn1c-2c(C2CCCCC2)c2ccc(C(=O)NS(=O)(=O)N(C)C)cc21 (stereo not given in full) | 7 nM
COc1ccc2c(c1)[C@@H]1C[C@]1(C(=O)N1CC34CCC3(CN(CC(F)(F)F)C4)C1)Cn1c-2c(C2CCCCC2)c2ccc(C(=O)NS(=O)(=O)C(C)C)cc21 (stereo not given in full) | 7 nM
COc1ccc2c(c1)[C@@H]1C[C@]1(C(=O)N1CC34CCC3(CN(CC(F)(F)F)C4)C1)Cn1c-2c(C2CCCCC2)c2ccc(C(=O)NS(=O)(=O)N(C)C)cc21 (stereo not given in full) | 4 nM
COc1ccc2c(c1)[C@@H]1C[C@]1(C(=O)N1CC34CCC3(C1)CN(S(=O)(=O)C(C)C)C4)Cn1c-2c(C2CCCCC2)c2ccc(C(=O)NS(=O)(=O)C(C)C)cc21 (stereo not given in full) | 4 nM
COc1ccc2c(c1)[C@@H]1C[C@]1(C(=O)N1[C@@H]3CC[C@H]1CN(C)C3)Cn1c-2c(C2CCCCC2)c2ccc(C(=O)NS(=O)(=O)N(C)C)cc21 [BECLABUVIR] | 4 nM

System: not listed separately
Experiment: Permeability of the compound at pH 5.5 by PAMPA
Assay type: physicochemical
Details: read-out: permeability

Structure (SMILES) | Papp
COc1ccc2c(c1)[C@@H]1C[C@]1(C(=O)N1CC34CCC3(CN(C(=O)N3CCOCC3)C4)C1)Cn1c-2c(C2CCCCC2)c2ccc(C(=O)NS(=O)(=O)N(C)C)cc21 (stereo not given in full) | 11.3 ×10⁻⁶ cm/s

System: not listed separately
Experiment: Cytotoxicity against human HuH7 cells after 4 hrs by CellTitre-Blue assay
Assay type: cell-based, Huh-7
Details: not given

Structure (SMILES) | CC50 at 4 h
COC(=O)N1CC23COCC2(C1)CN(C(=O)[C@]12C[C@H]1c1cc(OC)ccc1-c1c(C4CCCCC4)c4ccc(C(=O)NS(=O)(=O)N(C)C)cc4n1C2)C3 (stereo not given in full) | 7000 nM
CCOCCN1CC23COCC2(C1)CN(C(=O)[C@]12C[C@H]1c1cc(OC)ccc1-c1c(C4CCCCC4)c4ccc(C(=O)NS(=O)(=O)N(C)C)cc4n1C2)C3 (stereo not given in full) | 16000 nM
COc1ccc2c(c1)[C@@H]1C[C@]1(C(=O)N1CC34CCC3(C1)CN(C1CC1)C4)Cn1c-2c(C2CCCCC2)c2ccc(C(=O)NS(=O)(=O)C(C)C)cc21 (stereo not given in full) | 18000 nM
COc1ccc2c(c1)[C@@H]1C[C@]1(C(=O)N1CC34CCC3(C1)CN(C1CC1)C4)Cn1c-2c(C2CCCCC2)c2ccc(C(=O)NS(=O)(=O)N(C)C)cc21 (stereo not given in full) | 5000 nM
COc1ccc2c(c1)[C@@H]1C[C@]1(C(=O)N1CC34CCC3(CN(C(C)=O)C4)C1)Cn1c-2c(C2CCCCC2)c2ccc(C(=O)NS(=O)(=O)C(C)C)cc21 (stereo not given in full) | 37000 nM
COC(=O)N1CC23CCC2(C1)CN(C(=O)[C@]12C[C@H]1c1cc(OC)ccc1-c1c(C4CCCCC4)c4ccc(C(=O)NS(=O)(=O)C(C)C)cc4n1C2)C3 (stereo not given in full) | 3000 nM
CNC(=O)N1CC23CCC2(C1)CN(C(=O)[C@]12C[C@H]1c1cc(OC)ccc1-c1c(C4CCCCC4)c4ccc(C(=O)NS(=O)(=O)C(C)C)cc4n1C2)C3 (stereo not given in full) | 72000 nM
COc1ccc2c(c1)[C@@H]1C[C@]1(C(=O)N1CC34CCC3(CN(C(=O)N3CCCC3)C4)C1)Cn1c-2c(C2CCCCC2)c2ccc(C(=O)NS(=O)(=O)C(C)C)cc21 (stereo not given in full) | 14000 nM
COc1ccc2c(c1)[C@@H]1C[C@]1(C(=O)N1CC34CCC3(CN(C(=O)N3CCCC3)C4)C1)Cn1c-2c(C2CCCCC2)c2ccc(C(=O)NS(=O)(=O)N(C)C)cc21 (stereo not given in full) | 10000 nM
COc1ccc2c(c1)[C@@H]1C[C@]1(C(=O)N1CC34CCC3(CN(C(=O)N3CCOCC3)C4)C1)Cn1c-2c(C2CCCCC2)c2ccc(C(=O)NS(=O)(=O)C(C)C)cc21 (stereo not given in full) | 27000 nM
COc1ccc2c(c1)[C@@H]1C[C@]1(C(=O)N1CC34CCC3(CN(C(=O)N3CCOCC3)C4)C1)Cn1c-2c(C2CCCCC2)c2ccc(C(=O)NS(=O)(=O)N(C)C)cc21 (stereo not given in full) | 21000 nM
COc1ccc2c(c1)[C@@H]1C[C@]1(C(=O)N1CC34CCC3(CN(C(=O)N(C(C)C)C(C)C)C4)C1)Cn1c-2c(C2CCCCC2)c2ccc(C(=O)NS(=O)(=O)C(C)C)cc21 (stereo not given in full) | 10000 nM
COc1ccc2c(c1)[C@@H]1C[C@]1(C(=O)N1CC34CCC3(CN(C(=O)N(C(C)C)C(C)C)C4)C1)Cn1c-2c(C2CCCCC2)c2ccc(C(=O)NS(=O)(=O)N(C)C)cc21 (stereo not given in full) | 7000 nM
COc1ccc2c(c1)[C@@H]1C[C@]1(C(=O)N1CC34CCC3(CN(CC(F)(F)F)C4)C1)Cn1c-2c(C2CCCCC2)c2ccc(C(=O)NS(=O)(=O)C(C)C)cc21 (stereo not given in full) | 35000 nM
COc1ccc2c(c1)[C@@H]1C[C@]1(C(=O)N1CC34CCC3(CN(CC(F)(F)F)C4)C1)Cn1c-2c(C2CCCCC2)c2ccc(C(=O)NS(=O)(=O)N(C)C)cc21 (stereo not given in full) | 26000 nM
COc1ccc2c(c1)[C@@H]1C[C@]1(C(=O)N1CC34CCC3(C1)CN(S(=O)(=O)C(C)C)C4)Cn1c-2c(C2CCCCC2)c2ccc(C(=O)NS(=O)(=O)C(C)C)cc21 (stereo not given in full) | 10000 nM
COc1ccc2c(c1)[C@@H]1C[C@]1(C(=O)N1[C@@H]3CC[C@H]1CN(C)C3)Cn1c-2c(C2CCCCC2)c2ccc(C(=O)NS(=O)(=O)N(C)C)cc21 [BECLABUVIR] | 16000 nM

System: Hepatitis C virus
Experiment: Antiviral activity against HCV genotype 1a H77c infected in human HuH7 cells after 3 days by luciferase reporter gene assay
Assay type: functional, cell-based, Hepacivirus hominis
Details: Huh-7, 72 h

Structure (SMILES) | EC50
COC(=O)N1CC23COCC2(C1)CN(C(=O)[C@]12C[C@H]1c1cc(OC)ccc1-c1c(C4CCCCC4)c4ccc(C(=O)NS(=O)(=O)N(C)C)cc4n1C2)C3 (stereo not given in full) | 462 nM
CCOCCN1CC23COCC2(C1)CN(C(=O)[C@]12C[C@H]1c1cc(OC)ccc1-c1c(C4CCCCC4)c4ccc(C(=O)NS(=O)(=O)N(C)C)cc4n1C2)C3 (stereo not given in full) | 3 nM
COc1ccc2c(c1)[C@@H]1C[C@]1(C(=O)N1CC34CCC3(C1)CN(C1CC1)C4)Cn1c-2c(C2CCCCC2)c2ccc(C(=O)NS(=O)(=O)C(C)C)cc21 (stereo not given in full) | 12 nM
COc1ccc2c(c1)[C@@H]1C[C@]1(C(=O)N1CC34CCC3(C1)CN(C1CC1)C4)Cn1c-2c(C2CCCCC2)c2ccc(C(=O)NS(=O)(=O)N(C)C)cc21 (stereo not given in full) | 8 nM
COc1ccc2c(c1)[C@@H]1C[C@]1(C(=O)N1CC34CCC3(CN(C(C)=O)C4)C1)Cn1c-2c(C2CCCCC2)c2ccc(C(=O)NS(=O)(=O)C(C)C)cc21 (stereo not given in full) | 31 nM
COC(=O)N1CC23CCC2(C1)CN(C(=O)[C@]12C[C@H]1c1cc(OC)ccc1-c1c(C4CCCCC4)c4ccc(C(=O)NS(=O)(=O)C(C)C)cc4n1C2)C3 (stereo not given in full) | 64 nM
CNC(=O)N1CC23CCC2(C1)CN(C(=O)[C@]12C[C@H]1c1cc(OC)ccc1-c1c(C4CCCCC4)c4ccc(C(=O)NS(=O)(=O)C(C)C)cc4n1C2)C3 (stereo not given in full) | 20 nM
COc1ccc2c(c1)[C@@H]1C[C@]1(C(=O)N1CC34CCC3(CN(C(=O)N3CCCC3)C4)C1)Cn1c-2c(C2CCCCC2)c2ccc(C(=O)NS(=O)(=O)C(C)C)cc21 (stereo not given in full) | 27 nM
COc1ccc2c(c1)[C@@H]1C[C@]1(C(=O)N1CC34CCC3(CN(C(=O)N3CCCC3)C4)C1)Cn1c-2c(C2CCCCC2)c2ccc(C(=O)NS(=O)(=O)N(C)C)cc21 (stereo not given in full) | 18 nM
COc1ccc2c(c1)[C@@H]1C[C@]1(C(=O)N1CC34CCC3(CN(C(=O)N3CCOCC3)C4)C1)Cn1c-2c(C2CCCCC2)c2ccc(C(=O)NS(=O)(=O)C(C)C)cc21 (stereo not given in full) | 28 nM
COc1ccc2c(c1)[C@@H]1C[C@]1(C(=O)N1CC34CCC3(CN(C(=O)N3CCOCC3)C4)C1)Cn1c-2c(C2CCCCC2)c2ccc(C(=O)NS(=O)(=O)N(C)C)cc21 (stereo not given in full) | 15 nM
COc1ccc2c(c1)[C@@H]1C[C@]1(C(=O)N1CC34CCC3(CN(C(=O)N(C(C)C)C(C)C)C4)C1)Cn1c-2c(C2CCCCC2)c2ccc(C(=O)NS(=O)(=O)C(C)C)cc21 (stereo not given in full) | 37 nM
COc1ccc2c(c1)[C@@H]1C[C@]1(C(=O)N1CC34CCC3(CN(C(=O)N(C(C)C)C(C)C)C4)C1)Cn1c-2c(C2CCCCC2)c2ccc(C(=O)NS(=O)(=O)N(C)C)cc21 (stereo not given in full) | 23 nM
COc1ccc2c(c1)[C@@H]1C[C@]1(C(=O)N1CC34CCC3(CN(CC(F)(F)F)C4)C1)Cn1c-2c(C2CCCCC2)c2ccc(C(=O)NS(=O)(=O)C(C)C)cc21 (stereo not given in full) | 77 nM
COc1ccc2c(c1)[C@@H]1C[C@]1(C(=O)N1CC34CCC3(CN(CC(F)(F)F)C4)C1)Cn1c-2c(C2CCCCC2)c2ccc(C(=O)NS(=O)(=O)N(C)C)cc21 (stereo not given in full) | 55 nM
COc1ccc2c(c1)[C@@H]1C[C@]1(C(=O)N1CC34CCC3(C1)CN(S(=O)(=O)C(C)C)C4)Cn1c-2c(C2CCCCC2)c2ccc(C(=O)NS(=O)(=O)C(C)C)cc21 (stereo not given in full) | 7 nM
COc1ccc2c(c1)[C@@H]1C[C@]1(C(=O)N1[C@@H]3CC[C@H]1CN(C)C3)Cn1c-2c(C2CCCCC2)c2ccc(C(=O)NS(=O)(=O)N(C)C)cc21 [BECLABUVIR] | 2 nM

System: not listed separately
Experiment: Permeability of the compound at pH 7.4 by PAMPA
Assay type: physicochemical
Details: read-out: permeability

Structure (SMILES) | Papp
COc1ccc2c(c1)[C@@H]1C[C@]1(C(=O)N1CC34CCC3(CN(C(=O)N3CCOCC3)C4)C1)Cn1c-2c(C2CCCCC2)c2ccc(C(=O)NS(=O)(=O)N(C)C)cc21 (stereo not given in full) | 25.9 ×10⁻⁶ cm/s
